Test results reported in ChEMBL document CHEMBL1144784, “A novel series of potent and selective ketone histone deacetylase inhibitors with antitumor activity in vivo” (J Med Chem, 2008).

Columns and labels:
Plasma [1] = experiment: Stability in dog plasma at 5 uM after 24 hrs; format: ADME, cell-free, Canis lupus familiaris
HeLa = experiment: Antiproliferative activity against human HeLa cells by CellTiter-Blue cell viability assay; format: functional, cell-based
[2] = Clearance in Sprague-Dawley rat plasma at 3 mg/kg, iv; format: ADME, organism-based; design: dose 3 mg/kg, route intravenous
[3] = AUC (0 to infinity) in Sprague-Dawley rat at 3 mg/kg, iv; format: ADME, organism-based; design: dose 3 mg/kg, route intravenous, time infinity; settings: plasma
Histone deacetylase 1 = Histone deacetylase 1 (Homo sapiens, UniProt Q13547)
Plasma [4] = experiment: Stability in rat plasma at 5 uM after 24 hrs; format: ADME, cell-free
Plasma [5] = experiment: Stability in human plasma at 5 uM after 24 hrs; format: ADME, cell-free
Plasma [6] = experiment: Stability in mouse plasma at 5 uM after 24 hrs; format: ADME, cell-free
HCT-116 [7] = experiment: Antiproliferative activity against human HCT116 cells by CellTiter-Blue cell viability assay; format: functional, cell-based
A549 = experiment: Antiproliferative activity against human A549 cells by CellTiter-Blue cell viability assay; format: functional, cell-based
G-401 = experiment: Antiproliferative activity against human G401 cells by CellTiter-Blue cell viability assay; format: functional, cell-based
[8] = Antiproliferative activity against human renal epithelial cells by CellTiter-Blue cell viability assay; format: ADME, cell-based
Mus musculus [9] = experiment: Toxicity against human HCT116 cells xenografted BALB/c mouse assessed as body weight loss at 25 mg/kg, ip administered 5 days per week for 2.5 weeks; format: organism-based, HCT-116; design: dose 25 mg/kg, route intraperitoneal; settings: in vivo
[10] = Toxicity in ip dosed BALB/c mouse assessed as maximum tolerated dose; format: organism-based; settings: in vivo
A2780 = experiment: Antiproliferative activity against human A2780 cells by CellTiter-Blue cell viability assay; format: functional, cell-based
HCT-116 [11] = experiment: Antitumor activity against human HCT116 cells xenografted BALB/c mouse assessed as tumor growth inhibition at 60 mg/kg, ip administered for 5 days per week for 2.5 weeks; settings: HCT-116, ip, read-out: TGI
Mus musculus [12] = experiment: Toxicity against human HCT116 cells xenografted BALB/c mouse assessed as body weight loss at 100 mg/kg, ip administered 5 days per week for 2.5 weeks; format: organism-based, HCT-116; design: dose 100 mg/kg, route intraperitoneal; settings: in vivo
Histone deacetylase 5 = Histone deacetylase 5 (Homo sapiens, UniProt Q9UQL6); experiment: Inhibition of HDAC5 expressed in Escherichia coli
Histone deacetylase 3 = Histone deacetylase 3 (Homo sapiens, UniProt O15379)
Histone deacetylase 4 [13] = molecular target: T1, Histone deacetylase 4 (Homo sapiens, UniProt P56524); experiment: Inhibition of HDAC4 expressed in Escherichia coli
Target sequence in this assay (P56524 whole entry): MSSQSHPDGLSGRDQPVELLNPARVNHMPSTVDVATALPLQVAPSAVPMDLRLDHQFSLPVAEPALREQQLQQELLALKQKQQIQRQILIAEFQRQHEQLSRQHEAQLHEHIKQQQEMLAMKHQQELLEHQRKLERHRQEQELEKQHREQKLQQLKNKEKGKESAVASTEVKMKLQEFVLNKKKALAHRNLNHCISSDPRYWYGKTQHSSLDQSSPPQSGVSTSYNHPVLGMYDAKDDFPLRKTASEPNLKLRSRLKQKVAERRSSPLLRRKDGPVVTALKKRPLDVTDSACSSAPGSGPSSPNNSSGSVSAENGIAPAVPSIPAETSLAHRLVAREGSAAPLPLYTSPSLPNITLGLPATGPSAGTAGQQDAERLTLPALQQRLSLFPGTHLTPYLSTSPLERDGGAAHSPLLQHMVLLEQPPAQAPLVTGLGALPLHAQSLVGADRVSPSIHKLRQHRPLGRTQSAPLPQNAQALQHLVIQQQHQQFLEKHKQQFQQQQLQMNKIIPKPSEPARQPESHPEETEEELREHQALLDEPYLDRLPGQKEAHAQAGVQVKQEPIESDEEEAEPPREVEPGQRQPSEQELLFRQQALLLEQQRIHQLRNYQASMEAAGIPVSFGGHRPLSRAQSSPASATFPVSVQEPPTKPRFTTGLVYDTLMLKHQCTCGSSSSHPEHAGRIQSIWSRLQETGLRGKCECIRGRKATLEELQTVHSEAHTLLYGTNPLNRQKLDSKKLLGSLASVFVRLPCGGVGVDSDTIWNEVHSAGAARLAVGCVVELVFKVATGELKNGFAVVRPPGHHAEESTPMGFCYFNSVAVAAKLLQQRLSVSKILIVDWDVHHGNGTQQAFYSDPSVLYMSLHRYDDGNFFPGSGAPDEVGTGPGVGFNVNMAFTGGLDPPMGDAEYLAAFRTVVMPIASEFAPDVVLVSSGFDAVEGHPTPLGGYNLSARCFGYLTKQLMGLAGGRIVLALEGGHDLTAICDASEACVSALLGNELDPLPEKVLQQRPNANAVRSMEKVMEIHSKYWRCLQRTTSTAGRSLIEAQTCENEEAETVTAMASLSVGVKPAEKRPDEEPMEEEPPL

Plasma [14] = experiment: Stability in dog plasma at 5 uM after 4 hrs; format: ADME, cell-free, Canis lupus familiaris
[15] = Intrinsic clearance in human liver microsomes; format: ADME, Microsome
[16] = molecular target: T2, Protein deacetylase HDAC6 (Homo sapiens, UniProt Q9UBN7)
T2 sequence (Q9UBN7 whole entry): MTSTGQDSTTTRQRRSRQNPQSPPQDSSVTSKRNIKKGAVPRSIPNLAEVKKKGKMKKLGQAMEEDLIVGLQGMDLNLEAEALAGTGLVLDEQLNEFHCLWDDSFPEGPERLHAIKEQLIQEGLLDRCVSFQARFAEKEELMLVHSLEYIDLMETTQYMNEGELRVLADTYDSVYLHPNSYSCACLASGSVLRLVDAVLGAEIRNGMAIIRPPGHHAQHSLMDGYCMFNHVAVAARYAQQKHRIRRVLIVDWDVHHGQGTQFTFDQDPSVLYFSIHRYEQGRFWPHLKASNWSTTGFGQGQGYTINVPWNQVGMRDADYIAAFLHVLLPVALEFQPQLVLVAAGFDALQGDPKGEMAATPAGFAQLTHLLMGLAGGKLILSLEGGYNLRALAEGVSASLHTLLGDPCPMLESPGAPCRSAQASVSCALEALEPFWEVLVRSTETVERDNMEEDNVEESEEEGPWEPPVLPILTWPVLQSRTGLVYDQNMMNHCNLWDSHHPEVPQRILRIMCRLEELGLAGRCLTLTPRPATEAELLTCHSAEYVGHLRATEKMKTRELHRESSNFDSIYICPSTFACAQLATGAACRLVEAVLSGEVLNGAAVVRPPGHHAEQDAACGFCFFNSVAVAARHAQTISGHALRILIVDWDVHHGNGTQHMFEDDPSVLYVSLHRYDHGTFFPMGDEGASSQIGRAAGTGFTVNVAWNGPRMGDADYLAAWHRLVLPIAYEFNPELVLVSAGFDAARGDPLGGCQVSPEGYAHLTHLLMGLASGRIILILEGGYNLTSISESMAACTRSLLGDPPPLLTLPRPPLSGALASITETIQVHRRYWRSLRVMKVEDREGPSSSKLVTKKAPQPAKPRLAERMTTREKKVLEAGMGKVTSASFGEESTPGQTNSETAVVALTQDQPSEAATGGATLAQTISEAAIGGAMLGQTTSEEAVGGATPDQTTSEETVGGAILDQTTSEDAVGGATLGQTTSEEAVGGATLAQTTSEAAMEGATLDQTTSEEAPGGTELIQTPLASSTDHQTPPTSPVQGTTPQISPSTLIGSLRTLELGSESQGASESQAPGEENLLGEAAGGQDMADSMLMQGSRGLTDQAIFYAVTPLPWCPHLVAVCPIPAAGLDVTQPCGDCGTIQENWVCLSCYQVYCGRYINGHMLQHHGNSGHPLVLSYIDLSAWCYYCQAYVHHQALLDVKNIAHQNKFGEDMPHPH

Plasma [17] = experiment: Stability in mouse plasma at 5 uM after 4 hrs; format: ADME, cell-free
[18] = Intrinsic clearance in Sprague-Dawley rat liver microsomes; format: ADME, Microsome
Mus musculus [19] = experiment: Toxicity against human HCT116 cells xenografted BALB/c mouse assessed as body weight loss at 60 mg/kg, ip administered 5 days per week for 2.5 weeks; format: organism-based, HCT-116; design: dose 60 mg/kg, route intraperitoneal; settings: in vivo
[20] = Clearance in Sprague-Dawley rat plasma; format: ADME, organism-based
Plasma [21] = experiment: Stability in rat plasma at 5 uM after 4 hrs; format: ADME, cell-free
Histone deacetylase 7 = molecular target: T3, Histone deacetylase 7 (Homo sapiens, UniProt Q8WUI4); experiment: Inhibition of HDAC7 expressed in Escherichia coli
T3 sequence (Q8WUI4 whole entry): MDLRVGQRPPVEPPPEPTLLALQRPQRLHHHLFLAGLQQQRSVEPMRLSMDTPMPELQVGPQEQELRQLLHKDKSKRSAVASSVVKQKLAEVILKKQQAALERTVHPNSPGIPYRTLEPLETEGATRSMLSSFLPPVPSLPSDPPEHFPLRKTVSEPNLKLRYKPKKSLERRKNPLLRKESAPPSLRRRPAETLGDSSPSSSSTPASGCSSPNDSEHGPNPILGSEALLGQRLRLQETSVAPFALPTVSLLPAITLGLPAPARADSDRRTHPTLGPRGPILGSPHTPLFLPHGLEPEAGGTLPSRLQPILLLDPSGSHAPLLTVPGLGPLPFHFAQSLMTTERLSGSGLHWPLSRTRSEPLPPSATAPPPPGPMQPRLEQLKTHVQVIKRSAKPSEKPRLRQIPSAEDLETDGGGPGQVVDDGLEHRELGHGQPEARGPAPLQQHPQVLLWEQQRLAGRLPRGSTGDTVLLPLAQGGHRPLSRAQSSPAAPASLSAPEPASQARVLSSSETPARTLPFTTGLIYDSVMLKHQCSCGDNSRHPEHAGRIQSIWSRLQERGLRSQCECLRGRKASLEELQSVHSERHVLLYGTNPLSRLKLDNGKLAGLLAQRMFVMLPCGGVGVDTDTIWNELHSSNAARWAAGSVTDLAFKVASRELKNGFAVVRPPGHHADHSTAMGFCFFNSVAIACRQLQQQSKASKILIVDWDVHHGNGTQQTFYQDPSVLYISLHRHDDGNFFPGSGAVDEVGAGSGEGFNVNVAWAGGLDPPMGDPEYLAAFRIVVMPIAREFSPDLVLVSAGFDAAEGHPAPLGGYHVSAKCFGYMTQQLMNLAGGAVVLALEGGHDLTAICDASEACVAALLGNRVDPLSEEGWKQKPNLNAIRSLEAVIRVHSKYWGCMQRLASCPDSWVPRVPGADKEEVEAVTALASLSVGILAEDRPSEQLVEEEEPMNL

Histone deacetylase 2 = Histone deacetylase 2 (Homo sapiens, UniProt Q92769)
Histone deacetylase 8 = molecular target: T4, Histone deacetylase 8 (Homo sapiens, UniProt Q9BY41); experiment: Inhibition of HDAC8 expressed in Escherichia coli
T4 sequence (Q9BY41 whole entry): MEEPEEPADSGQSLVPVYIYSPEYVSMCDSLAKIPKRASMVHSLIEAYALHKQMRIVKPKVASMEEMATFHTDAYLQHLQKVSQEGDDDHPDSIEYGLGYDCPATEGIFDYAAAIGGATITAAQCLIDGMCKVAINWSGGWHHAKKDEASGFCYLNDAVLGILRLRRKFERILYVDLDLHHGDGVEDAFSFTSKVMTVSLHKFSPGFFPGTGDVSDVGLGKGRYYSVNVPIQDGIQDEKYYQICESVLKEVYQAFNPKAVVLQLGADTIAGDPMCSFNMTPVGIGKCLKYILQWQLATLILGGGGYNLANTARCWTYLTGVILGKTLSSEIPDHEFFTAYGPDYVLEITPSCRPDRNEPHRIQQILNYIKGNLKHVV

Plasma [22] = experiment: Stability in human plasma at 5 uM after 4 hrs; format: ADME, cell-free
[23] = Terminal half life in Sprague-Dawley rat; format: ADME, organism-based; settings: in vivo
Histone deacetylase 4 [24] = molecular target: T1, Histone deacetylase 4; experiment: Inhibition of HDAC4 gain-of-function phenotype expressed in Escherichia coli
Target sequence in this assay (P56524 whole entry, looked up): as the sequence (P56524 whole entry) above

[25] = Oral bioavailability in Sprague-Dawley rat; format: ADME, organism-based; settings: in vivo
[26] = molecular target: T5, Protein deacetylase HDAC6 (Homo sapiens) (UniProt Q9UBN7); experiment: Inhibition of HDAC6 at 10 uM
T5 sequence (whole entry): T2 sequence (Q9UBN7 whole entry)

[27] = molecular target: T6, Histone deacetylase 8 (Homo sapiens) (UniProt Q9BY41); settings: 10 uM
T6 sequence (whole entry): T4 sequence (Q9BY41 whole entry)
Description: Inhibition of HDAC8 expressed in Escherichia coli at 10 uM

Sequence of Histone deacetylase 1 (Q13547 whole entry): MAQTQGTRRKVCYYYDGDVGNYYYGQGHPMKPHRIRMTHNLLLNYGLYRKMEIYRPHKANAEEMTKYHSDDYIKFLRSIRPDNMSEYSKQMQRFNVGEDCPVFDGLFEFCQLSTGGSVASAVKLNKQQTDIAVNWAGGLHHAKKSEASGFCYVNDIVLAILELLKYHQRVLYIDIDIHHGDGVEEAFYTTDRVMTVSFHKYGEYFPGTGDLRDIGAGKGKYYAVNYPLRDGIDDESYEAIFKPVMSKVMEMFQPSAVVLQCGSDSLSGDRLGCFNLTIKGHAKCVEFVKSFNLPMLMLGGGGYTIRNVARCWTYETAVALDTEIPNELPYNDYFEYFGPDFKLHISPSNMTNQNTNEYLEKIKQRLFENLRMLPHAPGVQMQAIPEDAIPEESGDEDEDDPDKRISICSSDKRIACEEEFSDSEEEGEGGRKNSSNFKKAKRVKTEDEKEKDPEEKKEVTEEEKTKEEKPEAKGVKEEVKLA
Sequence of Histone deacetylase 2 (Q92769 whole entry): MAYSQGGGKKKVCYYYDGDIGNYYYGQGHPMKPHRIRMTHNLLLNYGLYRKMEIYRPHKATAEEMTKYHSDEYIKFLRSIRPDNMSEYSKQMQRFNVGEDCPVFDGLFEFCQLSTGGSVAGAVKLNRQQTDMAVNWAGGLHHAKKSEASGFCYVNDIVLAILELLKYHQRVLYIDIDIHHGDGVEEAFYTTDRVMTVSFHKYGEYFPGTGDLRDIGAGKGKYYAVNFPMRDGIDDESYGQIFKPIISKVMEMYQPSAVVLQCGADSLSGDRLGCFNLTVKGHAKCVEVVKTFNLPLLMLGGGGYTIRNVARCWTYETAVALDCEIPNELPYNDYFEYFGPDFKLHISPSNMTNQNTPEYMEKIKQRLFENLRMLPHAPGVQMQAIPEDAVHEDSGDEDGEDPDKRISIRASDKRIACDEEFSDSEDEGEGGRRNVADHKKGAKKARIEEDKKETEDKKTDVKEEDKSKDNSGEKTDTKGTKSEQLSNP
Sequence of Histone deacetylase 5 (Q9UQL6 whole entry): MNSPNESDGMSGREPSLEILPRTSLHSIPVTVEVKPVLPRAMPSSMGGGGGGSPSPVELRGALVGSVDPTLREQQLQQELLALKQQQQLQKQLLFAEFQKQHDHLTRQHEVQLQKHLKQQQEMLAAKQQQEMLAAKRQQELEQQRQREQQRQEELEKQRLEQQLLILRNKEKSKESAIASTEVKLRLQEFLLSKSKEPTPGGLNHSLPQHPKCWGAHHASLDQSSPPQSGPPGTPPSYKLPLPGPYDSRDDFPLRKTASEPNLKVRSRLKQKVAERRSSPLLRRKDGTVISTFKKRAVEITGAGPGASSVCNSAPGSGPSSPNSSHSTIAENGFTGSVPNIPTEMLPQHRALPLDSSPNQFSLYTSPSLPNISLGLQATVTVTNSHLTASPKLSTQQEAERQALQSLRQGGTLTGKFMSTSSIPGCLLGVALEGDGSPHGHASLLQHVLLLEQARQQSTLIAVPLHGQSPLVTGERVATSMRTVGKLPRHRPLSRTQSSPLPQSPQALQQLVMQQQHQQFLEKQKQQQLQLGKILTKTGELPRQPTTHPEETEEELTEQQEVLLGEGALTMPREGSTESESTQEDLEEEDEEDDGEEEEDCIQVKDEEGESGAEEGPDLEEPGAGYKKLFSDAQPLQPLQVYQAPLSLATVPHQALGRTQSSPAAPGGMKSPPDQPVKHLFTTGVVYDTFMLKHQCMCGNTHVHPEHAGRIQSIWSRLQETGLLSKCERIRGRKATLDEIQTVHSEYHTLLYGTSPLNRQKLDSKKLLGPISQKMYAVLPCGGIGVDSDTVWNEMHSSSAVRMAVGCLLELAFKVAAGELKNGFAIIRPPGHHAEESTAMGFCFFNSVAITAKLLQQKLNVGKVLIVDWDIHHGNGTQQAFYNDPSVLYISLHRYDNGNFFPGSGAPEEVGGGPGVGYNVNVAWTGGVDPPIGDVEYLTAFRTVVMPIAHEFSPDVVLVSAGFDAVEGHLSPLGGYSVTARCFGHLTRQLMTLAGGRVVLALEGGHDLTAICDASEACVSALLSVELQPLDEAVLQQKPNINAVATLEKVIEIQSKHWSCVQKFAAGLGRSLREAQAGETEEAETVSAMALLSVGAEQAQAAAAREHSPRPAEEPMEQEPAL
Sequence of Histone deacetylase 3 (O15379 whole entry): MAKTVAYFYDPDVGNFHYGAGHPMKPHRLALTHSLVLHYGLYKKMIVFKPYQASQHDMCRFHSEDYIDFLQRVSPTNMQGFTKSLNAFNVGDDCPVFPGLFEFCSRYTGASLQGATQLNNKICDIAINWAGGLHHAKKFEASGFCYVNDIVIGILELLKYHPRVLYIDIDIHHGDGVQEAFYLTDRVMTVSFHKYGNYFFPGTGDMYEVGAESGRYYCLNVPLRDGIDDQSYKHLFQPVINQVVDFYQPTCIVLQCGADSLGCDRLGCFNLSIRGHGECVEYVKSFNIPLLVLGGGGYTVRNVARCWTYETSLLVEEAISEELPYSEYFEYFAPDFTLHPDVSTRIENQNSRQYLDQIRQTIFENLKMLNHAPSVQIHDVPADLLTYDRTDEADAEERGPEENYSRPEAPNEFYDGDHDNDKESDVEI

Structure (SMILES) | IC50 (HeLa) | IC50 (Histone deacetylase 1) | IC50 (HCT-116 [7]) | IC50 (A549) | IC50 (G-401) | IC50 [8] | MTD [10] | IC50 (A2780) | IC50 (Histone deacetylase 5) | IC50 (Histone deacetylase 3) | IC50 (Histone deacetylase 4 [13]) | Stability (Plasma [14]) | IC50 [16] | Stability (Plasma [17]) | Stability (Plasma [21]) | IC50 (Histone deacetylase 7) | IC50 (Histone deacetylase 2) | IC50 (Histone deacetylase 8) | Stability (Plasma [22]) | IC50 (Histone deacetylase 4 [24]) | also measured
CC(=O)CCCCC[C@H](NC(=O)CCN1CCCCC1)C(=O)Nc1cnc2ccccc2c1.Cl.Cl | 2000 nM | 140 nM |  |  |  |  |  |  |  |  |  |  |  |  |  |  |  |  |  |  | Stability (Plasma [1]): Stable; clearance [2]: > 150 mL/min/kg; AUC(0-inf) [3]: 0.05 µM·h; Activity (Plasma [4]): Not Active; Stability (Plasma [5]): Stable; Activity (Plasma [6]): Not Active
Nc1ccccc1NC(=O)c1ccc(CNC(=O)OCc2cccnc2)cc1 [ENTINOSTAT] |  |  | 700 nM | 1200 nM | 1300 nM | > 20000 nM | 25 mg/kg | 3000 nM |  |  |  |  |  |  |  |  |  |  |  |  | Activity (Mus musculus [9]): < 10%; inhibition in vivo at 60 mg/kg (HCT-116 [11]): 69%
O=C(CCCCCCC(=O)Nc1ccccc1)NO [VORINOSTAT] |  |  |  |  |  |  |  |  |  |  |  |  |  |  |  |  |  |  |  |  | Activity (Mus musculus [12]): < 10%
COc1ccc2[nH]c(C)c(CC(=O)N[C@@H](CCCCCC(C)=O)c3ncc(-c4ccccc4)[nH]3)c2c1 | 880 nM | 59 nM | 500 nM | 6300 nM | 960 nM | 16000 nM | 60 mg/kg | 2200 nM | > 10000 nM | 120 nM | > 10000 nM | Stable | 340 nM | Stable | Stable | > 10000 nM | 110 nM | > 5000 nM | Stable | 6000 nM | microsomal CLint [15]: > 400 µL/min/mg; microsomal CLint [18]: > 400 µL/min/mg; Activity (Mus musculus [19]): < 10%; clearance [20]: 80 mL/min/kg; half-life [23]: 1.3 h; bioavailability [25]: 15%
CCC(=O)CCCCC[C@H](NC(=O)Cc1c(C)[nH]c2ccc(OC)cc12)c1ncc(-c2ccccc2)[nH]1 | 340 nM | 26 nM | 330 nM | 5200 nM | 250 nM | 5300 nM |  | 420 nM | > 10000 nM | 48 nM | > 10000 nM |  |  |  |  | > 10000 nM | 59 nM |  |  | > 10000 nM | inhibition [26]: 40%; inhibition [27]: 40%
COc1ccc2[nH]c(C)c(CC(=O)N[C@@H](CCCCCC(C)=O)c3nc4ccc(Cl)cc4[nH]3)c2c1 | 3100 nM | 670 nM | 4200 nM | 8200 nM | 7500 nM | 41000 nM |  | 11000 nM | > 10000 nM | 1000 nM | > 10000 nM | Stable | 970 nM | Stable | Stable | > 10000 nM | 880 nM | > 10000 nM | Stable | 4200 nM | 
